Experimental data published in patent US12077503B2, “Substituted cyclic amides and their use as herbicides” (FMC CORPORATION, priority 2015, dated 2024).

How the values were obtained:
Type in all cases: in vivo
[1] = system: redroot pigweed (Amaranthus retroflexus); assay: Test G Post-Emergence Protocol; conditions: Amaranthus retroflexus, post-emergence, 312 h, read-out: Pigweed, Redroot damage rating; for pest or weed control at 15.625 g/ha: 15.625 g ai/ha, evaluated after 13 days (100=total damage to plant; 0=no damage to plant); for pest or weed control at 62.5 g/ha: 62.5 g ai/ha; for pest or weed control at 62.5 g/ha / pest or weed control at 250 g/ha: evaluated after 13 days, 100=total damage to plant, 0=no damage to plant; for pest or weed control at 250 g/ha: 250 g ai/ha
Procedure, shortened: (§1)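 Foliar application was made 8 days after sowing, using an aqueous spray of the active in acetone/water (50:50) with 0.5% Tween 20, at doses of 15.625, 62.5 or 250 g/ha. Injury was assessed 13 days later, where 100 meant the plant was fully damaged.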

[2] = system: corn (Zea mays); assay: Test G Post-Emergence Protocol; conditions: Zea mays, post-emergence, 312 h, read-out: Corn damage rating; for plant injury at 15.625 g/ha: 15.625 g ai/ha, evaluated after 13 days (100=total damage to plant; 0=no damage to plant); for plant injury at 62.5 g/ha: 62.5 g ai/ha; for plant injury at 62.5 g/ha / plant injury at 250 g/ha: evaluated after 13 days, 100=total damage to plant, 0=no damage to plant; for plant injury at 250 g/ha: 250 g ai/ha
Procedure, shortened: as §1

[3] = system: giant foxtail (Setaria faberi); assay: Test G Post-Emergence Protocol; conditions: Setaria faberi, post-emergence, 312 h, read-out: Foxtail, Giant damage rating; for pest or weed control at 15.625 g/ha: 15.625 g ai/ha, evaluated after 13 days (100=total damage to plant; 0=no damage to plant); for pest or weed control at 62.5 g/ha: 62.5 g ai/ha; for pest or weed control at 62.5 g/ha / pest or weed control at 250 g/ha: evaluated after 13 days, 100=total damage to plant, 0=no damage to plant; for pest or weed control at 250 g/ha: 250 g ai/ha
Procedure, shortened: as §1

[4] = system: velvetleaf (Abutilon theophrasti); assay: Test G Post-Emergence Protocol; conditions: Abutilon theophrasti, post-emergence, 312 h, read-out: Velvetleaf damage rating; for pest or weed control at 15.625 g/ha: 15.625 g ai/ha, evaluated after 13 days (100=total damage to plant; 0=no damage to plant); for pest or weed control at 62.5 g/ha: 62.5 g ai/ha; for pest or weed control at 62.5 g/ha / pest or weed control at 250 g/ha: evaluated after 13 days, 100=total damage to plant, 0=no damage to plant; for pest or weed control at 250 g/ha: 250 g ai/ha
Procedure, shortened: as §1

[5] = system: barnyardgrass (Echinochloa crus-galli); assay: Test G Post-Emergence Protocol; conditions: Echinochloa crus-galli, post-emergence, 312 h, read-out: Barnyardgrass damage rating; for pest or weed control at 15.625 g/ha: 15.625 g ai/ha, evaluated after 13 days (100=total damage to plant; 0=no damage to plant); for pest or weed control at 62.5 g/ha: 62.5 g ai/ha; for pest or weed control at 62.5 g/ha / pest or weed control at 250 g/ha: evaluated after 13 days, 100=total damage to plant, 0=no damage to plant; for pest or weed control at 250 g/ha: 250 g ai/ha
Procedure, shortened: as §1

[6] = system: ivy-leaved morning glory (Ipomoea hederacea); assay: Test G Post-Emergence Protocol; conditions: Ipomoea, post-emergence, 312 h, read-out: Morningglory, Ivy-leaved damage rating; for pest or weed control at 15.625 g/ha: 15.625 g ai/ha, evaluated after 13 days (100=total damage to plant; 0=no damage to plant); for pest or weed control at 62.5 g/ha: 62.5 g ai/ha; for pest or weed control at 62.5 g/ha / pest or weed control at 250 g/ha: evaluated after 13 days, 100=total damage to plant, 0=no damage to plant; for pest or weed control at 250 g/ha: 250 g ai/ha
Procedure, shortened: as §1

[7] = system: redroot pigweed (Amaranthus retroflexus); assay: Test G Pre-Emergence Protocol; conditions: Amaranthus retroflexus, pre-emergence, 312 h, evaluated after 13 days; for pest or weed control at 15.625 g/ha: 15.625 g ai/ha; for pest or weed control at 15.625 g/ha / pest or weed control at 250 g/ha: read-out: Pigweed, Redroot damage rating (100=total damage to plant; 0=no damage to plant); for pest or weed control at 62.5 g/ha: 62.5 g ai/ha, 100=total damage to plant, 0=no damage to plant, read-out: Pigweed, Redroot damage rating; for pest or weed control at 250 g/ha: 250 g ai/ha
Procedure, shortened: (§2)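 Pots of seeds in standard soil were grown for one day in a glasshouse (24/16 °C day/night, 14 h light, 65% humidity), then sprayed with compound in acetone/water 50:50 with 0.5% Tween 20 at 15.625, 62.5 or 250 g/ha. Damage was scored after 13 days on a 0 (none) to 100 (total) scale.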

[8] = system: corn (Zea mays); assay: Test G Pre-Emergence Protocol; conditions: Zea mays, pre-emergence, 312 h, evaluated after 13 days; for plant injury at 15.625 g/ha: 15.625 g ai/ha; for plant injury at 15.625 g/ha / plant injury at 250 g/ha: read-out: Corn damage rating (100=total damage to plant; 0=no damage to plant); for plant injury at 62.5 g/ha: 62.5 g ai/ha, 100=total damage to plant, 0=no damage to plant, read-out: Corn damage rating; for plant injury at 250 g/ha: 250 g ai/ha
Procedure, shortened: as §2

[9] = system: giant foxtail (Setaria faberi); assay: Test G Pre-Emergence Protocol; conditions: Setaria faberi, pre-emergence, 312 h, evaluated after 13 days; for pest or weed control at 15.625 g/ha: 15.625 g ai/ha; for pest or weed control at 15.625 g/ha / pest or weed control at 250 g/ha: read-out: Foxtail, Giant damage rating (100=total damage to plant; 0=no damage to plant); for pest or weed control at 62.5 g/ha: 62.5 g ai/ha, 100=total damage to plant, 0=no damage to plant, read-out: Foxtail, Giant damage rating; for pest or weed control at 250 g/ha: 250 g ai/ha
Procedure, shortened: as §2

[10] = system: velvetleaf (Abutilon theophrasti); assay: Test G Pre-Emergence Protocol; conditions: Abutilon theophrasti, pre-emergence, 312 h, evaluated after 13 days; for pest or weed control at 15.625 g/ha: 15.625 g ai/ha; for pest or weed control at 15.625 g/ha / pest or weed control at 250 g/ha: read-out: Velvetleaf damage rating (100=total damage to plant; 0=no damage to plant); for pest or weed control at 62.5 g/ha: 62.5 g ai/ha, 100=total damage to plant, 0=no damage to plant, read-out: Velvetleaf damage rating; for pest or weed control at 250 g/ha: 250 g ai/ha
Procedure, shortened: as §2

[11] = system: barnyardgrass (Echinochloa crus-galli); assay: Test G Pre-Emergence Protocol; conditions: Echinochloa crus-galli, pre-emergence, 312 h, evaluated after 13 days; for pest or weed control at 15.625 g/ha: 15.625 g ai/ha; for pest or weed control at 15.625 g/ha / pest or weed control at 250 g/ha: read-out: Barnyardgrass damage rating (100=total damage to plant; 0=no damage to plant); for pest or weed control at 62.5 g/ha: 62.5 g ai/ha, 100=total damage to plant, 0=no damage to plant, read-out: Barnyardgrass damage rating; for pest or weed control at 250 g/ha: 250 g ai/ha
Procedure, shortened: as §2

[12] = system: ivy-leaved morning glory (Ipomoea hederacea); assay: Test G Pre-Emergence Protocol; conditions: Ipomoea, pre-emergence, 312 h, evaluated after 13 days; for pest or weed control at 15.625 g/ha: 15.625 g ai/ha; for pest or weed control at 15.625 g/ha / pest or weed control at 250 g/ha: read-out: Morningglory, Ivy-leaved damage rating (100=total damage to plant; 0=no damage to plant); for pest or weed control at 62.5 g/ha: 62.5 g ai/ha, 100=total damage to plant, 0=no damage to plant, read-out: Morningglory, Ivy-leaved damage rating; for pest or weed control at 250 g/ha: 250 g ai/ha
Procedure, shortened: as §2

| Compound | pest or weed control at 15.625 g/ha [1] [%] | pest or weed control at 62.5 g/ha [1] [%] | pest or weed control at 250 g/ha [1] [%] | plant injury at 15.625 g/ha [2] [%] | plant injury at 62.5 g/ha [2] [%] | plant injury at 250 g/ha [2] [%] | pest or weed control at 15.625 g/ha [3] [%] | pest or weed control at 62.5 g/ha [3] [%] | pest or weed control at 250 g/ha [3] [%] | pest or weed control at 15.625 g/ha [4] [%] | pest or weed control at 62.5 g/ha [4] [%] | pest or weed control at 250 g/ha [4] [%] | pest or weed control at 15.625 g/ha [5] [%] | pest or weed control at 62.5 g/ha [5] [%] | pest or weed control at 250 g/ha [5] [%] | pest or weed control at 15.625 g/ha [6] [%] | pest or weed control at 62.5 g/ha [6] [%] | pest or weed control at 250 g/ha [6] [%] | pest or weed control at 15.625 g/ha [7] [%] | pest or weed control at 62.5 g/ha [7] [%] | also measured |
| --- | --- | --- | --- | --- | --- | --- | --- | --- | --- | --- | --- | --- | --- | --- | --- | --- | --- | --- | --- | --- | --- |
| CN1C[C@H](c2cccc(C(F)(F)F)c2)[C@@H](C(=O)Nc2cnccc2S(C)(=O)=O)C1=O (racemic) [Compound 1747] | 10 | 20 | 20 | 0 | 0 | 30 | 10 | 60 | 80 | 0 | 0 | 10 | 0 | 60 | 80 | 0 | 20 | 50 | 0 | 10 | pest or weed control at 250 g/ha [7]: 10%; plant injury at 15.625 g/ha [8]: 0%; plant injury at 62.5 g/ha [8]: 0%; plant injury at 250 g/ha [8]: 0%; pest or weed control at 15.625 g/ha [9]: 0%; pest or weed control at 62.5 g/ha [9]: 10%; pest or weed control at 250 g/ha [9]: 70%; pest or weed control at 15.625 g/ha [10]: 0%; pest or weed control at 62.5 g/ha [10]: 0%; pest or weed control at 250 g/ha [10]: 0%; pest or weed control at 15.625 g/ha [11]: 0%; pest or weed control at 62.5 g/ha [11]: 0%; pest or weed control at 250 g/ha [11]: 80%; pest or weed control at 15.625 g/ha [12]: 0%; pest or weed control at 62.5 g/ha [12]: 0%; pest or weed control at 250 g/ha [12]: 0% |
| CN1CC(c2cc(F)c(Cl)c(F)c2)C(C(=O)Nc2cccc(F)c2F)C1=O (stereo not drawn) [Compound 1703] | 20 | 60 | 80 | 0 | 0 | 80 | 70 | 70 | 80 | 10 | 40 | 70 | 50 | 70 | 80 | 60 | 60 | 60 | 0 | 0 | pest or weed control at 250 g/ha [7]: 10%; plant injury at 15.625 g/ha [8]: 0%; plant injury at 62.5 g/ha [8]: 60%; plant injury at 250 g/ha [8]: 80%; pest or weed control at 15.625 g/ha [9]: 80%; pest or weed control at 62.5 g/ha [9]: 80%; pest or weed control at 250 g/ha [9]: 90%; pest or weed control at 15.625 g/ha [10]: 0%; pest or weed control at 62.5 g/ha [10]: 0%; pest or weed control at 250 g/ha [10]: 30%; pest or weed control at 15.625 g/ha [11]: 50%; pest or weed control at 62.5 g/ha [11]: 80%; pest or weed control at 250 g/ha [11]: 80%; pest or weed control at 15.625 g/ha [12]: 0%; pest or weed control at 62.5 g/ha [12]: 0%; pest or weed control at 250 g/ha [12]: 40% |
| COc1cc(C2CN(C)C(=O)C2C(=O)Nc2cccc(F)c2F)cc(Cl)c1F (stereo not drawn) [Compound 1705] | 0 | 0 | 30 | 10 | 0 | 70 | 70 | 70 | 80 | 0 | 0 | 10 | 20 | 30 | 80 | 0 | 20 | 50 | 0 | 0 | pest or weed control at 250 g/ha [7]: 30%; plant injury at 15.625 g/ha [8]: 0%; plant injury at 62.5 g/ha [8]: 10%; plant injury at 250 g/ha [8]: 70%; pest or weed control at 15.625 g/ha [9]: 50%; pest or weed control at 62.5 g/ha [9]: 70%; pest or weed control at 250 g/ha [9]: 80%; pest or weed control at 15.625 g/ha [10]: 0%; pest or weed control at 62.5 g/ha [10]: 0%; pest or weed control at 250 g/ha [10]: 20%; pest or weed control at 15.625 g/ha [11]: 20%; pest or weed control at 62.5 g/ha [11]: 60%; pest or weed control at 250 g/ha [11]: 70%; pest or weed control at 15.625 g/ha [12]: 0%; pest or weed control at 62.5 g/ha [12]: 0%; pest or weed control at 250 g/ha [12]: 10% |
